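The compound was tested at five concentrations on cells cultured in 96-well plates, with a 48-hour exposure period. GI50: concentration for 50% inhibition of growth.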 The source made the active and inactive calls. No stated cut-off is given here; in the data, active = GI50 up to about 1.1 µM and inactive = higher.
Experiments:
Experiment in all cases: NCI tumour cell line growth inhibition, 48 h
BT-549 = system: BT-549
SF-268 = system: SF-268
SNB-19 = system: SNB-19
SK-MEL-5 = system: SK-MEL-5
A498 = system: A498
786-0 = system: 786-0
HOP-62 = system: HOP-62
UACC-257 = system: UACC-257
NCI-H460 = system: NCI-H460
KM12 = system: KM12
K562 = system: K562
M14 = system: M14
TK-10 = system: TK-10
HCT-15 = system: HCT-15
IGROV-1 = system: IGROV-1
MDA-MB-231 = system: MDA-MB-231
ACHN = system: ACHN
HL-60 = system: HL-60
SNB-75 = system: SNB-75

| SMILES | GI50 (BT-549) | GI50 (SF-268) | GI50 (SNB-19) | GI50 (SK-MEL-5) | GI50 (A498) | GI50 (786-0) | GI50 (HOP-62) | GI50 (UACC-257) | GI50 (NCI-H460) | GI50 (KM12) | GI50 (K562) | GI50 (M14) | GI50 (TK-10) | GI50 (HCT-15) [µM] | GI50 (IGROV-1) | GI50 (MDA-MB-231) | GI50 (ACHN) | GI50 (HL-60) | GI50 (SNB-75) |
| --- | --- | --- | --- | --- | --- | --- | --- | --- | --- | --- | --- | --- | --- | --- | --- | --- | --- | --- | --- |
| Nc1c(O)c(C(=O)O)cc2ccccc12 | 21.3 µM (inactive) | 42 µM (inactive) | > 100 µM (inactive) | 14.7 µM (inactive) | > 100 µM (inactive) | 19.6 µM (inactive) | > 100 µM (inactive) | 17.3 µM (inactive) | 39.6 µM (inactive) | 40.2 µM (inactive) | 31.8 µM (inactive) | 17.7 µM (inactive) | 98.4 µM (inactive) | 36.6 | > 100 µM (inactive) | 15.3 µM (inactive) | 25.4 µM (inactive) | 32.7 µM (inactive) | 24.3 µM (inactive) |
| c1ccc2nn(C3CCCO3)nc2c1 (centres undefined) | > 100 µM (inactive) | > 100 µM (inactive) |  | > 100 µM (inactive) | > 100 µM (inactive) | > 100 µM (inactive) | > 100 µM (inactive) | > 100 µM (inactive) | > 100 µM (inactive) |  | > 100 µM (inactive) | > 100 µM (inactive) | > 100 µM (inactive) | > 100 | > 100 µM (inactive) | > 100 µM (inactive) |  | > 100 µM (inactive) | > 100 µM (inactive) |
| O=C(CCCN1CCC(Nc2ccc(F)cc2)(c2nnnn2C2CCCCC2)CC1)c1ccc(F)cc1 | 16.5 µM (inactive) | 12.8 µM (inactive) | 15.6 µM (inactive) | 20.7 µM (inactive) | 3.79 µM (inactive) | 17.8 µM (inactive) | 16.9 µM (inactive) | 21.3 µM (inactive) | 11.6 µM (inactive) | 3.52 µM (inactive) | 3.98 µM (inactive) | 16.7 µM (inactive) | 15.3 µM (inactive) | 15.2 | 3.69 µM (inactive) | 16.6 µM (inactive) | 10.6 µM (inactive) | 6.52 µM (inactive) | 11.2 µM (inactive) |
| c1ccc(-c2cn3c(nc4ccccc43)c(-c3ccccc3)n2)cc1 | 29.4 µM (inactive) | > 50.6 µM (inactive) | 16.8 µM (inactive) | 84.3 µM (inactive) | 44.6 µM (inactive) | 16.1 µM (inactive) | 7.13 µM (inactive) | > 100 µM (inactive) | 58.1 µM (inactive) | > 100 µM (inactive) | > 100 µM (inactive) | > 100 µM (inactive) | > 59.6 µM (inactive) | > 100 | 42.9 µM (inactive) | > 100 µM (inactive) | > 100 µM (inactive) | > 100 µM (inactive) | 14.5 µM (inactive) |
| CC(N/N=N/c1ccc(-c2nc3ccccc3[nH]2)cc1)C(=O)O (centres undefined) | 3.73 µM (inactive) | 32.7 µM (inactive) | > 100 µM (inactive) | 18.8 µM (inactive) | > 100 µM (inactive) | 15.7 µM (inactive) | 45.2 µM (inactive) | > 100 µM (inactive) | 17.5 µM (inactive) | 19.2 µM (inactive) | 7.16 µM (inactive) | 35.1 µM (inactive) | 81.7 µM (inactive) | 9.57 | 12.9 µM (inactive) | 33.7 µM (inactive) | 40.3 µM (inactive) | 32.6 µM (inactive) | > 100 µM (inactive) |
| CC(C)C[C@H]1[C@@H](OCc2ccccc2)COS(=O)(=O)N1[C@H](C)c1ccccc1 | > 58.2 µM (inactive) | > 93.1 µM (inactive) | > 46 µM (inactive) | 5.55 µM (inactive) | > 100 µM (inactive) | 23.4 µM (inactive) | > 84.1 µM (inactive) | 20 µM (inactive) | 11.7 µM (inactive) | 47.1 µM (inactive) | 5.24 µM (inactive) | > 100 µM (inactive) | 83 µM (inactive) | 29.1 | > 100 µM (inactive) | 48 µM (inactive) | 48 µM (inactive) | 6.11 µM (inactive) | > 46.7 µM (inactive) |
| O=C1C(Br)=C(C2=CC(=P(c3ccccc3)(c3ccccc3)c3ccccc3)C=C2)C(=O)C(Br)=C1C1=CC(=P(c2ccccc2)(c2ccccc2)c2ccccc2)C=C1 | > 100 µM (inactive) | > 100 µM (inactive) | > 100 µM (inactive) | > 100 µM (inactive) | > 100 µM (inactive) | 37.9 µM (inactive) | > 100 µM (inactive) | 33.3 µM (inactive) |  | > 100 µM (inactive) | > 100 µM (inactive) | 12.6 µM (inactive) | 30.3 µM (inactive) |  | 40.3 µM (inactive) | 42.1 µM (inactive) | > 100 µM (inactive) | > 100 µM (inactive) | > 100 µM (inactive) |
| C=CCN1CCC(c2cc(C(=O)OCC)[nH]c2-c2cc(C)no2)C1=O (centres undefined) | > 100 µM (inactive) | > 100 µM (inactive) | > 100 µM (inactive) | > 100 µM (inactive) | > 100 µM (inactive) | > 100 µM (inactive) | > 100 µM (inactive) | > 100 µM (inactive) | > 100 µM (inactive) | > 100 µM (inactive) | > 100 µM (inactive) | > 100 µM (inactive) |  | > 100 | > 100 µM (inactive) | > 100 µM (inactive) |  | 76.2 µM (inactive) | 94.8 µM (inactive) |
| CNc1ccc(Cl)cc1S(=O)(=O)c1ccccc1[N+](=O)[O-] | > 100 µM (inactive) | > 100 µM (inactive) | > 100 µM (inactive) | 46.7 µM (inactive) | > 100 µM (inactive) | > 100 µM (inactive) | > 100 µM (inactive) |  | > 100 µM (inactive) |  | > 100 µM (inactive) | > 100 µM (inactive) | > 100 µM (inactive) | > 100 | > 100 µM (inactive) | > 100 µM (inactive) | > 100 µM (inactive) | > 100 µM (inactive) | > 100 µM (inactive) |
| c1sc(NC2=NCCO2)c2c1CCCC2 | > 100 µM (inactive) |  | > 100 µM (inactive) | > 100 µM (inactive) | > 100 µM (inactive) | > 100 µM (inactive) |  | > 100 µM (inactive) | > 100 µM (inactive) | > 100 µM (inactive) | > 100 µM (inactive) | > 100 µM (inactive) | > 100 µM (inactive) | > 100 | > 100 µM (inactive) | > 100 µM (inactive) | > 100 µM (inactive) | > 100 µM (inactive) | > 100 µM (inactive) |
| O=S(=O)(Oc1ccc2oc3ccccc3c2c1-c1c(OS(=O)(=O)C(F)(F)F)ccc2oc3ccccc3c12)C(F)(F)F | > 100 µM (inactive) | > 100 µM (inactive) | > 100 µM (inactive) | > 100 µM (inactive) | > 100 µM (inactive) | > 100 µM (inactive) | > 100 µM (inactive) | > 100 µM (inactive) | > 100 µM (inactive) | > 100 µM (inactive) | > 100 µM (inactive) | > 100 µM (inactive) | > 100 µM (inactive) | > 100 | > 100 µM (inactive) | > 100 µM (inactive) | > 100 µM (inactive) | 8.28 µM (inactive) |  |
| COc1ccccc1C1SCC(=O)N1c1ccc(-n2c(-c3ccccc3)nc3ccccc3c2=O)cc1 (centres undefined) | > 100 µM (inactive) | 78.2 µM (inactive) | > 100 µM (inactive) | 37.5 µM (inactive) | 36 µM (inactive) | > 100 µM (inactive) | > 100 µM (inactive) | > 100 µM (inactive) | 40.7 µM (inactive) | 29.9 µM (inactive) | 47.9 µM (inactive) |  | > 100 µM (inactive) | 54.2 | 46.6 µM (inactive) | 47.6 µM (inactive) | 71.8 µM (inactive) | > 10 µM (inactive) | 3.51 µM (inactive) |
| O=C(CCC(=O)c1ccsc1)c1ccsc1 | > 100 µM (inactive) | > 100 µM (inactive) | > 100 µM (inactive) | > 100 µM (inactive) | > 100 µM (inactive) | > 100 µM (inactive) | > 100 µM (inactive) | > 100 µM (inactive) | > 100 µM (inactive) | > 100 µM (inactive) |  | > 100 µM (inactive) | > 100 µM (inactive) | > 100 | > 100 µM (inactive) | > 100 µM (inactive) | > 100 µM (inactive) | > 100 µM (inactive) | > 100 µM (inactive) |
| O=C(COc1ccc(OCC(=O)N/N=C/c2ccc(-c3ccc(Cl)cc3Cl)o2)c(Cl)c1)N/N=C/c1ccc(-c2ccc(Cl)cc2Cl)o1 | 83.9 µM (inactive) | 41.6 µM (inactive) | > 100 µM (inactive) | > 100 µM (inactive) | 49.3 µM (inactive) | 94.4 µM (inactive) | 27.5 µM (inactive) | > 100 µM (inactive) | > 100 µM (inactive) | > 100 µM (inactive) | 15.3 µM (inactive) | > 100 µM (inactive) | > 100 µM (inactive) | > 100 | > 100 µM (inactive) | 35 µM (inactive) | 70.1 µM (inactive) | 16.4 µM (inactive) |  |
| N=C(N)NCCCC(=O)O | > 100 µM (inactive) | > 100 µM (inactive) | > 100 µM (inactive) | > 100 µM (inactive) | > 100 µM (inactive) | > 100 µM (inactive) | > 100 µM (inactive) |  | > 100 µM (inactive) | > 100 µM (inactive) | > 100 µM (inactive) | > 100 µM (inactive) | > 100 µM (inactive) | > 100 | > 100 µM (inactive) | > 100 µM (inactive) | > 100 µM (inactive) | > 100 µM (inactive) | > 100 µM (inactive) |

Reference: ChEMBL document CHEMBL1201862, “PubChem BioAssay data set” (2004)
